The values below are quoted from earlier work in article PMC9598925, “Synthetic Amphipathic β-Sheet Temporin-Derived Peptide with Dual Antibacterial and Anti-Inflammatory Activities” (Antibiotics, 2022).

Read-outs that look alike come from different tables or passages of the source.

For data set [1] the following is noted: LUVs mimicking Gram-positive and Gram-negative membranes; cited from earlier work. From the text: The molecular conformation of [Nle^1, DLeu^9, DLys^10]TL was investigated by circular dichroism (CD) spectroscopy both in LUVs made of DOPG/CL and DOPG/DOPE/CL (Figure 3, panel A). […] In contrast, the introduction of Nle induced changes in molecular conformation, determining the formation of β-aggregates.

The conditions of data set [2]: LUVs DOPG/CL, cited from earlier work. How it is done: LUVs composed of DOPG/CL (58/42 ratio in moles) and DOPG/DOPE/CL ([…] ratio in moles) were used to mimic Gram-positive and Gram-negative cell membranes, respectively. LUVs were titrated with different peptide concentrations of 5, 10, 15, […], 30, and 50 μM. […] In contrast, the peptide [DLeu^9, DLys^10]TL progressively oligomerized in LUVs (DOPG/CL) as described in Bellavita et al.; in fact, it was partially aggr ...

Data set [3] deals with J774A.1 murine macrophage cells. To be noted: highest concentration of 25 μM; previous work of the authors; cited from earlier work.
The conditions of data set [4]: range of concentrations 1 μM–200 μM; cited from earlier work. The text has this:
The impact of Nle on the aggregation propensity was studied in solution and in presence of large unilamellar vesicles (LUVs) mimicking Gram-positive and Gram-negative membranes. The aggregation in aqueous solution was monitored using Nile Red (NR) as a fluorescent probe. […] The introduction of the Nle residue conferred to peptide [Nle^1, DLeu^9, DLys^10]TL a low propensity to aggregate in aqueous solution as shown ...

The conditions of data set [5]: 10 μM peptide; LUVs DOPG/CL, ANTS/DPX; cited from earlier work. As to the method: In this study, we evaluated the membranolytic activity of analogue [Nle^1, DLeu^9, DLys^10]TL in presence of LUVs mimicking Gram-positive and Gram-negative membranes by using ANTS/DPX leakage assay. […] Indeed, after the treatment with 10 μM of [Nle^1, DLeu^9, DLys^10]TL, we observed ~60% of LUVs leakage in com ...

Data set [6] relates to zymosan-induced peritonitis. To be noted: cited from earlier work.
A further data set relates to HaCaT cells. The following applies: highest concentration of 25 μM; previous work of the authors; cited from earlier work.
The test system of data set [7] is K. pneumoniae ATCC BAA-1705. The following applies: lead peptide, previous works ref 27, 41; cited from earlier work. From the text:
(§1) Table 2 MICs values of peptide [Nle^1, DLeu^9, DLys^10]TL in comparison with [DLeu^9, DLys^10]TL on selected Gram-positive and Gram-negative strains. | column: MIC Values (μM) / [DLeu^9, DLys^10]TL *

For a further data set, the system named is S. aureus ATCC 25923. The following applies: lead peptide, previous works ref 27, 41; cited from earlier work.
Excerpt: as §1

The subject of the next data set is B. megaterium Bm11. To be noted: lead peptide, previous works ref 27, 41; cited from earlier work.
Excerpt: as §1

Data set [8] deals with S. epidermidis ATCC 12228. To be noted: lead peptide, previous works ref 27, 41; cited from earlier work.
Excerpt: as §1

The subject of the next data set is P. aeruginosa ATCC 27853. To be noted: lead peptide, previous works ref 27, 41; cited from earlier work.
Excerpt: as §1

The test system of the next data set is A. baumannii ATCC 19606. To be noted: lead peptide, previous works ref 27, 41; cited from earlier work.
Excerpt: as §1

For another data set, the system named is E. coli ATCC 25922. The following applies: lead peptide, previous works ref 27, 41; cited from earlier work.
Excerpt: as §1

For the substance FVPWFSKFlkRIL [[DLeu^9, DLys^10]TL], the “molecular conformation (CD)” value in data set [1] is recorded as “helical aggregates”. Moreover, the figures for the “aggregation (ThT)” value in [2] (20 μM peptide) and in [2] (50 μM peptide) were ~ 56% and “completely aggregated”, respectively. Also, the “cytotoxicity on murine macrophages” value in data set [3] is on record as “not cytotoxic”. The aggregation in solution result in data set [4] was “unable to aggregate in solution”. Besides, the LUVs leakage in [5] was ~ 23%. Besides, the “anti-inflammatory activity in vivo” value in data set [6] is reported as “significant anti-inflammatory activity”. In addition, the “level of pro-inflammatory cytokines IL-6, MCP-1 and TNF-α” value in data set [6] was “reduced the level of pro-inflammatory cytokines”. Moreover, in the data set on HaCaT cells, the “cytotoxicity on human keratinocytes” value is “not cytotoxic”. For the same substance, the MIC was 12.5 µM in data set [7]; 6.25 µM in the data set on S. aureus ATCC 25923; 3.12 µM with B. megaterium Bm11; 3.12 µM in [8]; 12.5 µM with P. aeruginosa ATCC 27853; 6.25 µM in the data set on A. baumannii ATCC 19606. For the same substance, in the data set on E. coli ATCC 25922, the minimal inhibitory concentration (MIC) is 12.5 µM.

Usually MIC stands for the least concentration at which growth counts as inhibited.
